Measurements: patent EP4800012A1, “COMPOUND ACTING AS PARP7 INHIBITOR” (Dovetree Medicines Unus, Inc., priority 2023, dated 2025)
Where two headings read alike, the source gives them in different places.

Experiments:
NCI-H1373 cells = test: Inhibition on NCI-H1373 cell proliferation (Cell-Titer-Glo); assay type: cell-based; settings: Homo sapiens, read-out: NCI-H1373 cell proliferation inhibition IC50
Protocol: The inhibitory effect of the compound on PARP7 was evaluated by testing the inhibitory effect of the compound on NCI-H1373 cell proliferation.
NCI-H1373 cells (ATCC, CRL-5866) were cultured in a complete medium, namely, a RPMI-1640 medium (Gibco, 22400089) containing 10% fetal bovine serum (Corning, 35-081-CV).
Negative control wells and positive control wells were added with 50 nL DMSO (Sigma, D2650), respectively.
In "Day 0" detection plate, NCI-H1373 cells were seeded at a density of 600 cells/well (50 µL) in a complete medium into the Day 0 test wells of a 384-well detection plate (Grenier, 781091). Then, 25 µL of Cell-Titer-Glo reagent (Promega, G7573) was added to each well, followed by centrifugation at 1000 rpm at room temperature for 1 minute and incubation at room temperature under shaded conditions for 10 min. Chemiluminescence signals were collected using an Envision (Perkin Elmer, EnVision 2105) to obtain the average value of the Day 0 test values.
In "compound detection plate", NCI-H1373 cells were seeded at a density of 600 cells/well (50 µL) in a complete medium into the negative control wells and the compound detection wells of a 384-well detection plate (Grenier, 781091), and 50 µL of cell culture medium was added to the positive control wells, followed by centrifugation at 1000 rpm at room temperature for 1 minute and placing in a cell incubator at 37°C, 5% CO2 for incubation for 6 days. […] Chemiluminescence signals were collected using an Envision (Perkin Elmer, EnVision 2105). The test values for each compound well, negative control well, and positive control well were obtained.
The proliferation inhibition ratio formula is as follows: [formula]
The average value of the negative control = the average value of the Day 6 test values of each negative control well minus the average value of the Day 0 test values
The average value of the positive control = the average value of the Day 6 test values of each positive control well
The average value of the compound test = (the Day 6 test value of compound test well 1 + the Day 6 test value of compound test well 2)/2 - the average value of the Day 0 test values

PARP7 [1] = molecular target: T1, PARP7 (Homo sapiens, UniProt Q7Z3E1); test: PARP7 TR-FRET binding inhibition (displacement of probe RBN011147); settings: TR-FRET, Biotin-labeled probe RBN011147; read-out: PARP7 binding inhibition IC50
T1 construct: purchased BPS 80527
T1 sequence (Q7Z3E1 1-657): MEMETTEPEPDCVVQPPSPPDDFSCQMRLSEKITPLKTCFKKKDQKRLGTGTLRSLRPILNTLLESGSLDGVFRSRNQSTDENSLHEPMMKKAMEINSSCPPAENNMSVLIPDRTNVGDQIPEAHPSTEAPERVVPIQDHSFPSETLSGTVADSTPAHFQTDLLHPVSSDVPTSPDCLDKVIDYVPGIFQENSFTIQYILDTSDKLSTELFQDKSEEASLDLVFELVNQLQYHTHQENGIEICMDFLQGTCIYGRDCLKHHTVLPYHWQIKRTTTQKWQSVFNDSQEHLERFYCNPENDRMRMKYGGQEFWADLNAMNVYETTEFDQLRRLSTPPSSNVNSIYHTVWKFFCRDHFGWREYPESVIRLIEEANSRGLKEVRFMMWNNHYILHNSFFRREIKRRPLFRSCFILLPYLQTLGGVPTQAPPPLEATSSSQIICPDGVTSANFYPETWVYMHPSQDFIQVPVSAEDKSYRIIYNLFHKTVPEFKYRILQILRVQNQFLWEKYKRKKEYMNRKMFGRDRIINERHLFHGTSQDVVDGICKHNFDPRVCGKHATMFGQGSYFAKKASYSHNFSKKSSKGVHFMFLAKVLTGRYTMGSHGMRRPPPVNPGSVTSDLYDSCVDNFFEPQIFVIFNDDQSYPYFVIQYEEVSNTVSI
Protocol: The ability of the compound to substitute the probe RBN011147 (Wigle et al., 2020, Cell Chemical Biology 27, 877-887) was tested by a TR-FRET method, and IC50 was calculated to evaluate the binding ability of the compound to PARP7. […]

PARP7 [2] = molecular target: T1, PARP7; test: Inhibition of the compound on PARP7 protein activity (ADP-ribosylation, chemiluminescence); assay type: biochemical; settings: Histone H1 coated plate, Biotin-Labeled NAD+, 2 h at room temperature, chemiluminescence; read-out: PARP7 activity inhibition IC50
[3] = 144 h, NCI-H1373 cells, incubation for 6 days, Cell-Titer-Glo

IC50 (NCI-H1373 cells; [3]) [nM]	IC50 (PARP7 [1]) [nM]	IC50 (PARP7 [2]) [nM]	Compound	IC50 (NCI-H1373 cells; NCI-H1373, 144 h) [nM]
1000 to 3000	< 10	< 3	O=C(NCCCC(Nc1cn[nH]c(=O)c1C(F)(F)F)C1CC1)c1ccc(-c2ncc(C(F)(F)F)s2)cc1 (stereo not drawn) [Example 55]	
> 3000	30 to 100	30 to 100	CC(CCCNC(=O)c1ccc2c(=O)n(C)cnc2c1)Nc1cn[nH]c(=O)c1C(F)(F)F (stereo not drawn) [Example 59]	
300 to 1000	< 10	< 3	CC(CCCNC(=O)c1ccc(-c2cscn2)nc1)Nc1cn[nH]c(=O)c1C(F)(F)F (stereo not drawn) [Example 60]	
< 300	< 10	< 3	CC(CCCNC(=O)c1ccc(-n2cc(C(F)(F)F)cn2)cc1)Nc1cn[nH]c(=O)c1C(F)(F)F (stereo not drawn) [Example 61]	
> 3000	30 to 100	30 to 100	CC(CCCNC(=O)c1ccc(-n2cccn2)c(F)c1)Nc1cn[nH]c(=O)c1C(F)(F)F (stereo not drawn) [Example 62]	
< 300	< 10	< 3	CC(CCCNC(=O)c1ccc(-c2ncc(N(C)C)cn2)cc1)Nc1cn[nH]c(=O)c1C(F)(F)F (stereo not drawn) [Example 63]	
> 3000	> 100	10 to 30	CC(CCCNC(=O)c1ccc(-c2ccc(=O)n(C)n2)cc1)Nc1cn[nH]c(=O)c1C(F)(F)F (stereo not drawn) [Example 64]	
> 3000	30 to 100	30 to 100	COc1nc(-c2ccc(C(=O)NCCCC(C)Nc3cn[nH]c(=O)c3C(F)(F)F)cc2)cs1 (stereo not drawn) [Example 65]	
> 3000	> 100	30 to 100	Cc1cc(=O)n(C)nc1-c1ccc(C(=O)NCCCC(C)Nc2cn[nH]c(=O)c2C(F)(F)F)cc1 (stereo not drawn) [Example 66]	
300 to 1000	< 10	< 3	CC(CCCNC(=O)c1ccc(-c2ncc(C#N)cc2F)cc1)Nc1cn[nH]c(=O)c1C(F)(F)F (stereo not drawn) [Example 67]	
300 to 1000	< 10	< 3	Cc1cc(-c2ccc(C(=O)NCCCC(C)Nc3cn[nH]c(=O)c3C(F)(F)F)cc2)ncc1C#N (stereo not drawn) [Example 68]	
300 to 1000	< 10	< 3	CC(CCCNC(=O)c1ncc(-c2ncc(N3CC(F)C3)cn2)cc1F)Nc1cn[nH]c(=O)c1C(F)(F)F (stereo not drawn) [Example 72]	
300 to 1000	< 10	< 3	CC(CCCNC(=O)c1ncc(-c2ncc(C(F)(F)F)cn2)cc1F)Nc1cn[nH]c(=O)c1C(F)(F)F (stereo not drawn) [Example 73]	
> 3000	< 10	< 3	CC(CCCNC(=O)c1ncc(-c2ncc(C(F)F)s2)cc1F)Nc1cn[nH]c(=O)c1C(F)(F)F (stereo not drawn) [Example 74]	

Compound	IC50 (NCI-H1373 cells; [3]) [nM]	IC50 (PARP7 [1]) [nM]	IC50 (PARP7 [2]) [nM]	IC50 (NCI-H1373 cells; NCI-H1373, 144 h) [nM]
O=C(NCCCC(Nc1cn[nH]c(=O)c1C(F)(F)F)C1CC1)c1cnc(-c2ncc(C(F)(F)F)s2)cn1 (stereo not drawn) [Example 54]	> 3000	10 to 30	3 to 10	
CC(CCCNC(=O)c1ccc(-c2ncc(N(C)C3CC3)s2)cc1)Nc1cn[nH]c(=O)c1C(F)(F)F (stereo not drawn) [Example 56]	300 to 1000	< 10	< 3	
CC(CCCNC(=O)c1ccc(-c2ncc(N(C)C)s2)cc1)Nc1cn[nH]c(=O)c1C(F)(F)F (stereo not drawn) [Example 57]		< 10	3 to 10	1000 to 3000
CC(CCCNC(=O)c1ccc(-c2ncc(N3CCCCC3)s2)cc1)Nc1cn[nH]c(=O)c1C(F)(F)F (stereo not drawn) [Example 58]	> 3000	< 10	3 to 10	
